Measurements from ChEMBL document CHEMBL1201862, “PubChem BioAssay data set” (2004).
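How tested: cells in 96-well plates exposed to compound for 48 hours at five concentrations. GI50 marks 50% less growth.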 Activity calls are given as the source filed them. Cut-off read from the data, not from the text of the source: active = GI50 up to about 1.1 µM and inactive = higher.

Legend:
Assay in all cases: inhibition of tumour cell growth, NCI panel, 48 h
HCC 2998 = test system: HCC 2998
Malme-3M = test system: Malme-3M
EKVX = test system: EKVX
COLO 205 = test system: COLO 205
SF-268 = test system: SF-268
MOLT-4 = test system: MOLT-4
NCI-H460 = test system: NCI-H460
SW-620 = test system: SW-620
RPMI-8226 = test system: RPMI-8226
SF-295 = test system: SF-295
A549 = test system: A549
SN12C = test system: SN12C
SNB-75 = test system: SNB-75
MDA-N = test system: MDA-N
TK-10 = test system: TK-10
SK-OV-3 = test system: SK-OV-3
SF-539 = test system: SF-539
LOX IMVI = test system: LOX IMVI
UACC-62 = test system: UACC-62

Measured: GI50

OC(c1cc(C(O)(C(F)(F)F)C(F)(F)F)ncn1)(C(F)(F)F)C(F)(F)F
inactive: HCC 2998 > 10 µM | Malme-3M > 10 µM | EKVX > 10 µM | COLO 205 > 10 µM | SF-268 > 10 µM | MOLT-4 > 10 µM | NCI-H460 > 10 µM | SW-620 > 10 µM | RPMI-8226 > 10 µM | SF-295 > 10 µM | A549 > 10 µM | SN12C > 10 µM | SNB-75 > 10 µM | MDA-N > 10 µM | TK-10 > 10 µM | SK-OV-3 > 10 µM | SF-539 > 10 µM | LOX IMVI > 10 µM | UACC-62 > 10 µM

CN1CCN(c2cc3c(cc2F)c(=O)c(C(=O)O)cn3C2CC2)CC1CC#N (stereo not given)
inactive: HCC 2998 > 100 µM | Malme-3M > 100 µM | EKVX > 100 µM | COLO 205 > 100 µM | SF-268 > 100 µM | MOLT-4 > 100 µM | NCI-H460 > 100 µM | SW-620 > 100 µM | RPMI-8226 > 100 µM | SF-295 > 100 µM | A549 > 100 µM | SN12C > 100 µM | SNB-75 > 100 µM | MDA-N > 100 µM | TK-10 > 100 µM | SK-OV-3 > 100 µM | SF-539 > 100 µM | LOX IMVI > 100 µM | UACC-62 > 100 µM

C/C(=N\c1cc(Cl)cc(Cl)c1)c1ccncc1
inactive: HCC 2998 > 100 µM | Malme-3M > 100 µM | EKVX > 100 µM | COLO 205 > 100 µM | SF-268 > 100 µM | MOLT-4 > 100 µM | NCI-H460 > 100 µM | SW-620 > 100 µM | RPMI-8226 31 µM | SF-295 > 100 µM | A549 > 100 µM | SN12C > 100 µM | SNB-75 > 100 µM | MDA-N > 100 µM | TK-10 > 100 µM | SK-OV-3 29.9 µM | SF-539 > 100 µM | LOX IMVI > 100 µM | UACC-62 15 µM

C[C@@H]1[C@@H](C)C(c2ccccc2)O[Si]1(C(C)(C)C)C(C)(C)C (stereo not given in full)
inactive: HCC 2998 19.8 µM | Malme-3M 9.71 µM | EKVX 17.1 µM | COLO 205 15.7 µM | SF-268 25.2 µM | MOLT-4 16 µM | NCI-H460 17.4 µM | SW-620 18.8 µM | RPMI-8226 20.6 µM | SF-295 16.6 µM | A549 16.6 µM | SN12C 17.4 µM | SNB-75 16 µM | MDA-N 22.5 µM | TK-10 16.4 µM | SK-OV-3 26.5 µM | SF-539 17 µM | LOX IMVI 16.9 µM | UACC-62 19.1 µM

C#CCOCC12C=CC(O1)C1C(=O)N(C)C(=O)C12 (stereo not given)
inactive: HCC 2998 > 100 µM | Malme-3M > 100 µM | EKVX > 100 µM | COLO 205 > 100 µM | SF-268 > 100 µM | MOLT-4 > 100 µM | NCI-H460 > 100 µM | SW-620 > 100 µM | RPMI-8226 > 100 µM | SF-295 > 100 µM | A549 > 100 µM | SN12C > 100 µM | SNB-75 > 100 µM | MDA-N > 100 µM | TK-10 > 100 µM | SK-OV-3 > 100 µM | SF-539 > 100 µM | LOX IMVI > 100 µM | UACC-62 > 100 µM

CCCC(C)c1c(Cl)nc(Cl)nc1Cl (stereo not given)
inactive: HCC 2998 5.18 µM | Malme-3M 8.45 µM | EKVX 18.3 µM | COLO 205 4.4 µM | SF-268 10.3 µM | MOLT-4 1.49 µM | NCI-H460 11 µM | SW-620 4.23 µM | RPMI-8226 5.53 µM | SF-295 18.5 µM | A549 10.1 µM | SN12C 7.94 µM | SNB-75 14.5 µM | MDA-N 4.72 µM | TK-10 20.9 µM | SK-OV-3 20.2 µM | SF-539 5.73 µM | LOX IMVI 1.66 µM | UACC-62 > 10 µM

C=C(COC(=O)C(C)C)[C@H]1Oc2ccc(C(C)=O)cc2[C@@H]1OC(=O)C(C)C
inactive: HCC 2998 > 100 µM | Malme-3M > 100 µM | EKVX > 100 µM | COLO 205 > 100 µM | SF-268 > 100 µM | MOLT-4 > 100 µM | NCI-H460 > 100 µM | SW-620 > 100 µM | RPMI-8226 76.4 µM | SF-295 > 100 µM | A549 > 100 µM | SN12C > 100 µM | SNB-75 > 100 µM | MDA-N > 100 µM | TK-10 > 100 µM | SK-OV-3 > 100 µM | SF-539 > 100 µM | LOX IMVI > 100 µM | UACC-62 > 100 µM

CCOc1ccc(NC(=O)/C=C/c2ccco2)cc1
inactive: HCC 2998 35.2 µM | Malme-3M > 100 µM | EKVX 87.3 µM | COLO 205 36.1 µM | SF-268 78.7 µM | MOLT-4 40 µM | NCI-H460 43.8 µM | SW-620 > 100 µM | RPMI-8226 32.3 µM | SF-295 61.8 µM | A549 > 100 µM | SN12C 79.6 µM | SNB-75 84.3 µM | MDA-N 12.3 µM | TK-10 > 100 µM | SK-OV-3 32.4 µM | SF-539 26 µM | LOX IMVI 54.3 µM | UACC-62 > 100 µM

CCN(CC)C(=O)c1cc([N+](=O)[O-])c(=O)n2c1[nH]c1ccccc12
inactive: HCC 2998 > 100 µM | Malme-3M > 100 µM | EKVX > 100 µM | COLO 205 > 100 µM | SF-268 > 100 µM | MOLT-4 > 100 µM | NCI-H460 > 100 µM | SW-620 > 100 µM | RPMI-8226 > 100 µM | SF-295 > 100 µM | A549 > 100 µM | SN12C > 100 µM | SNB-75 > 100 µM | MDA-N > 100 µM | TK-10 > 100 µM | SK-OV-3 > 100 µM | SF-539 > 100 µM | LOX IMVI > 100 µM | UACC-62 > 100 µM

c1ccc2c(c1)-c1ccccc1C2N1CC2CCC(CC2)C1
inactive: HCC 2998 16.9 µM | Malme-3M 10.1 µM | EKVX 21.7 µM | COLO 205 20.5 µM | SF-268 15.5 µM | MOLT-4 12.3 µM | NCI-H460 19.8 µM | SW-620 22.1 µM | RPMI-8226 20.4 µM | SF-295 19.3 µM | A549 28.8 µM | SN12C 23.9 µM | SNB-75 27 µM | MDA-N 31.9 µM | TK-10 37.4 µM | SK-OV-3 44.1 µM | SF-539 24.1 µM | LOX IMVI 18.7 µM | UACC-62 19.9 µM
